Columns and labels:
[1] = tested on: PAXF1657 control empty vector cell line; assay: 7-day proliferation assay, PAXF1657 control empty vector cell line (Example 9); assay type: cell-based; conditions: 168 h; Cell Line: PAXF1657 empty vector (EV) cell line; 7-day; read-out: C: 7-day proliferation assay: IC50 GeoMean
Method in brief: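 Viability by CellTiter-Glo after 7 days at 37° C., with compound-containing media replaced on day 3. Cells (500/well, RPMI1640 + 10% FBS) were PAXF1657 pairs: GRK2 overexpression vs empty vector, or CRISPR GRK2 knockout vs non-targeting clones; doses 30 μM-0.0002 μM final, 10 points, 0.3% DMSO.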

GRK2 [2] = target: T1, GRK2 (Homo sapiens, UniProt P25098); assay: ADPGlo GRK2 Inhibition Assay (Example 8); assay type: biochemical
T1 construct: purchased SignalChem A14-10G
T1 sequence (P25098 1-689): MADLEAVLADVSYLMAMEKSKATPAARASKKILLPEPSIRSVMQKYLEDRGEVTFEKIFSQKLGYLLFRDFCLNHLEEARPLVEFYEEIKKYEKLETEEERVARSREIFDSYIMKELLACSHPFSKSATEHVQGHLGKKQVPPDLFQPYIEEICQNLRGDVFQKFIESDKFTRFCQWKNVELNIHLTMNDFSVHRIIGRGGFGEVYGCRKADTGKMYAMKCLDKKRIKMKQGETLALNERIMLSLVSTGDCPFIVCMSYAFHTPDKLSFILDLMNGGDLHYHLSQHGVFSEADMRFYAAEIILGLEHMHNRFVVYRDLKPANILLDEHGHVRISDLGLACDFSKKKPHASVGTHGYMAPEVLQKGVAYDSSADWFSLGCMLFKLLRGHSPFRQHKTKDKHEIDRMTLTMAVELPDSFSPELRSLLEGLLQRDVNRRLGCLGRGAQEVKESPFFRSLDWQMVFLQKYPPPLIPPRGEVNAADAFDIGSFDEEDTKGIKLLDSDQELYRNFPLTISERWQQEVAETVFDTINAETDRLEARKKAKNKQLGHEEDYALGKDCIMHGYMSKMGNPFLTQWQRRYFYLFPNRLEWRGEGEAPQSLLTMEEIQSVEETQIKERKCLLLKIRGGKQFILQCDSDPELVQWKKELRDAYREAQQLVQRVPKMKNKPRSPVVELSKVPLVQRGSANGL
Method in brief: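 GRK2 (15 nM 2× enzyme solution) was preincubated 15 min with compound, then reacted 180 min at room temperature with 2× mix of 20 μM ATP plus GRKtide in HEPES pH 7.5, MgCl2, Tween-20, DTT. ADP was detected by ADP-Glo luminescence. Percent inhibition was normalised to enzyme and no-enzyme controls, with dose-response curves from threefold dilutions starting at 100 μM.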

GRK2 [3] = target: T1, GRK2; assay: GRK2 Inhibition Assay (TR-FRET, Example 7); assay type: biochemical
Method: Enzyme GRK2 (1 nM final concentration) was diluted in 25 mMv HEPES, 10 mM MgCl2, 2 mM DTT, 0.01% Tween-20, and 1 mM EGTA. Then the GRK2 mixture was added into ProxiPlate-384 white plate and pre-incubated for 30 min with test compounds at room temperature. ATP (7 μM final concentration) and Ulight TopoIIα (50 nM final concentration) were added into the assay plate to initiate the reaction and the mixture was incubated at room temperature for 90 min. Then, Eu anti-TopoIIα (0.12 nM final concentration), BSA (0.01% final concentration), and EDTA (11 mMv final concentration) in LANCE assay buffer were added into each well. After 60 min incubation time at room temperature, TR-FRET signal was measured by EnVision plate reader.

[4] = ADPGlo GRK2 enzyme assay, read-out: A: Enzymatic GRK2: IC50 (nM) (Example 8)
[5] = TR-FRET GRK2 enzyme assay, read-out: B: Enzymatic GRK2: IC50 (nM) (Example 7)
[6] = Enzyme Assay A, ADPGlo (Example 8), read-out: A: Enzymatic GRK2: IC50 (nM) (Example 8)
[7] = Enzyme Assay B, TR-FRET (Example 7), read-out: B: Enzymatic GRK2: IC50 (nM) (Example 7)

| Structure (SMILES) | IC50 [1] [nM] | IC50 (GRK2 [2]; [4]) [nM] | IC50 (GRK2 [3]; [5]) [nM] | IC50 (GRK2 [2]; [6]) [nM] | IC50 (GRK2 [3]; [7]) [nM] | IC50 (GRK2 [2]; 7.5 nM GRK2, 10 μM ATP, ADP-Glo, read-out: GRK2 IC50 (nM) (Example 8)) | IC50 (GRK2 [3]; 1 nM GRK2, 7 μM ATP, TR-FRET, read-out: GRK2 IC50 (nM) (Example 7)) |
| --- | --- | --- | --- | --- | --- | --- | --- |
| Cn1c(CNc2cccc(C(=O)N[C@@H]3CCOc4c(Cl)cccc43)c2)nnc1-c1ccncn1 | > 470 | 8.2 | 3.6 | – | – | – | – |
| C[C@H](NC(=O)c1cccc(NCc2nnc(-c3ccncn3)n2CCO)c1)c1ncccc1Cl | > 220 | – | – | 4.89 | 0.88 | – | – |
| COc1cccc(C(CO)NC(=O)c2cccc(NCc3nnc(-c4ccncn4)n3C)c2)c1 (centres unmarked) [drawing 569] | > 30000 | – | – | 5.4 | 13 | – | – |
| CCc1cnccc1CNC(=O)c1cccc(NCc2nnc(-c3ccncn3)n2[C@@H]2CCC[C@H](NC)C2)c1 | > 4570 | 456 | 57 | – | – | – | – |
| Cn1c(CNc2cccc(C(=O)NCc3ccc(C#N)cc3)c2)nnc1-c1ccncn1 [drawing 603] | > 30000 | – | – | 6.3 | 20 | – | – |
| Cn1c(CNc2cccc(C(=O)NCc3cnn(-c4ccccc4)n3)c2)nnc1-c1ccncn1 [drawing 616] | > 30000 | – | – | 6.5 | 18 | – | – |
| Cn1c(CNc2cccc(C(=O)N[C@H]3CCOc4ccccc43)c2)nnc1-c1ccncc1F | 1490 | – | – | 44.3 | 59 | – | – |
| Cc1cc2c(cc1CNC(=O)c1cccc(NCc3nnc(-c4ccncn4)n3C)c1)OCCO2 [drawing 588] | 996 | – | – | 0.5 | 3.3 | – | – |
| Cn1c(CNc2cccc(C(=O)N[C@@H]3COCc4ccccc43)c2)nnc1-c1ccncn1 [drawing 851] | > 800 | 20.2 | 11.9 | – | – | – | – |
| O=C(N[C@H]1CCOc2ccccc21)c1cccc(NCc2nnc(-c3ccncn3)n2CCO)c1 | 104 | – | – | 4.1 | 2.5 | – | – |
| Cn1cccc1CNC(=O)c1cccc(NCc2nnc(-c3ccncn3)n2C)c1 [drawing 585] | 551 | – | – | 9.5 | 6.7 | – | – |
| Cn1c(CNc2cccc(C(=O)NCc3ccc(-n4ccnn4)cc3)c2)nnc1-c1ccncn1 [drawing 579] | > 30000 | – | – | 9.5 | 18 | – | – |
| Cn1c(CNc2cccc(C(=O)N[C@H]3CCOc4c(Cl)cccc43)c2)nnc1-c1ccncn1 | > 1010 | 33.6 | 13.2 | – | – | – | – |
| CCOc1ccc(C(CO)NC(=O)c2cccc(NCc3nnc(-c4ccncn4)n3C)c2)cn1 (centres unmarked) [drawing 577] | > 30000 | – | – | 1.8 | 12 | – | – |
| Cn1c(CNc2cccc(C(=O)N[C@H]3c4ccccc4C[C@H]3O)c2)nnc1-c1ccncn1 | 1410 | – | – | 7.3 | 24 | – | – |
| C[C@H](NC(=O)c1cccc(NCc2nnc(-c3ccncn3)n2C)c1)c1ncccc1Cl | 696 | 9.6 | 16 | – | – | – | – |
| Cn1c(CNc2cccc(C(=O)NCc3cnccc3Cl)c2)nnc1-c1ccncn1 [drawing 570] | 1190 | – | – | 4.3 | 17 | – | – |
| Cc1cccc2nnc(CNC(=O)c3cccc(NCc4nnc(-c5ccncn5)n4C)c3)n12 | > 30000 | – | – | 0.79 | 2.1 | – | – |
| Cc1ccc2ncc(CNC(=O)c3cccc(NCc4nnc(-c5ccncn5)n4C)c3)n2c1 [drawing 596] | > 30000 | – | – | 2.8 | 7.2 | – | – |
| Cn1c(CNc2cccc(C(=O)NCc3ccc(-n4nccn4)cc3)c2)nnc1-c1ccncn1 [drawing 601] | > 30000 | – | – | 2.1 | 20 | – | – |
| COc1ncccc1CNC(=O)c1cccc(NCc2nnc(-c3ccncc3)[nH]2)c1 [compound 9] | – | – | – | – | – | 12 | 5.8 |
| Cc1ccn2c(CNC(=O)c3cccc(NCc4nnc(-c5ccncn5)n4C)c3)cnc2c1 [drawing 620] | 5600 | – | – | 3 | 20 | – | – |
| Cn1c(CNc2cccc(C(=O)N[C@@H]3CCOc4cccnc43)c2)nnc1-c1ccncn1 | 192 | – | – | 1.3 | 7 | – | – |
| Cn1c(CNc2cccc(C(=O)NCc3ccc4c(c3)CCN4)c2)nnc1-c1ccncn1 [drawing 571] | > 30000 | – | – | 9.4 | 15 | – | – |

| Structure (SMILES) | IC50 [1] [nM] | IC50 (GRK2 [2]; [4]) [nM] | IC50 (GRK2 [3]; [5]) [nM] | IC50 (GRK2 [2]; [6]) [nM] | IC50 (GRK2 [3]; [7]) [nM] | IC50 (GRK2 [2]; 7.5 nM GRK2, 10 μM ATP, ADP-Glo, read-out: GRK2 IC50 (nM) (Example 8)) | IC50 (GRK2 [3]; 1 nM GRK2, 7 μM ATP, TR-FRET, read-out: GRK2 IC50 (nM) (Example 7)) |
| --- | --- | --- | --- | --- | --- | --- | --- |
| Cc1cc2c(cc1CNC(=O)c1ccnc(NCc3nnc(-c4ccncn4)n3C)c1)OCCO2 | > 330 | – | – | 22.1 | 11.6 | – | – |
| [2H]C([2H])(Nc1cccc(C(=O)NCc2ccncc2CC)c1)c1nnc(-c2ccncn2)n1C | > 30000 | – | – | 20.2 | 9.4 | – | – |
| Cc1cccc(C(CO)NC(=O)c2cccc(NCc3nnc(-c4ccncn4)n3C)c2)c1 (centres unmarked) [drawing 589] | 407 | – | – | 1.1 | 8.6 | – | – |
| Cc1cccc([C@H](CO)NC(=O)c2cccc(NCc3nnc(-c4ccncn4)n3CCO)c2)c1 | 50 | – | – | 2.32 | < 0.8 | – | – |
| Cn1c(CNc2cc(C(=O)N[C@H]3COc4ccccc43)ccn2)nnc1-c1ccncn1 | 476 | – | – | 12.9 | 15.3 | – | – |
| Cn1nccc1CNC(=O)c1cccc(NCc2nnc(-c3ccncn3)n2C)c1 [drawing 608] | > 30000 | – | – | 5.7 | 29 | – | – |
| Cn1c(CNc2cccc(C(=O)NC3CCOc4cccnc43)c2)nnc1-c1ccncn1 (centres unmarked) [drawing 572] | 285 | – | – | 9.6 | 13 | – | – |
| Cn1c(CNc2cccc(C(=O)NCc3ccc4nccn4c3)c2)nnc1-c1ccncn1 [drawing 611] | 2930 | – | – | 1.7 | 26 | – | – |
| CCc1cnccc1CNC(=O)c1cccc(NCc2nnc(-c3ccncn3)n2[C@H]2CCC[C@H](NC)C2)c1 | – | 529 | 810 | – | – | – | – |
| O=C(NCc1cccnc1C(F)(F)F)c1cccc(NCc2nnc3n2CCOc2cnccc2-3)c1 | 6570 | – | – | – | 3.5 | – | – |
| COc1ncccc1CNC(=O)c1cccc(NCc2nnc(-c3ccncc3)n2CCO)c1 | 256 | – | – | – | 20 | – | – |
| Cn1c(CNc2cccc(C(=O)N[C@H](C#N)c3ccc(F)cc3F)c2)nnc1-c1ccncn1 | 122 | – | 4.9 | – | – | – | – |
| Cc1ccc2c(c1)[C@@H](NC(=O)c1cccc(NCc3nnc(-c4ccncn4)n3C)c1)CC(C)(C)O2 | > 30000 | – | – | – | 240 | – | – |
| O=C(NCc1cccnc1C(F)(F)F)c1cccc(NCc2nnc(-c3ccncc3)n2CCO)c1 | > 30000 | – | – | – | 5.2 | – | – |
| Cc1cccc2ncc(CNC(=O)c3cccc(NCc4nnc(-c5ccncn5)n4CCO)c3)n12 | 3080 | – | – | – | 1 | – | – |
| Cn1c(CNc2cccc(C(=O)N[C@H]3CCOc4cc(Cl)ccc43)c2)nnc1-c1ccncn1 | > 29400 | – | – | – | 18 | – | – |
| O=C(N[C@H]1CCOc2ccccc21)c1cccc(NCc2nnc(-c3ccncc3)[nH]2)c1 | > 1760 | – | – | – | 2.1 | – | – |
| Cn1c(CNc2cccc(C(=O)N[C@@H]3CCOc4ccc(F)cc43)c2)nnc1-c1ccncn1 | 96.2 | – | – | – | 2 | – | – |
| Cn1c(CNc2cc(C(=O)NCc3cnc4ccccn34)ccn2)nnc1-c1ccncn1 | 2750 | – | – | – | 7.9 | – | – |
| O=C(NCc1ccncc1Cl)c1cccc(NCc2nnc(-c3ccncn3)n2CCO)c1 | > 2970 | – | – | – | < 2.9 | – | – |
| Cc1cccc([C@@H](CO)NC(=O)c2cccc(NCc3nnc(-c4ccncn4)n3CCO)c2)c1 | 1510 | – | – | – | 1.1 | – | – |
| Cn1c(CNc2cccc(C(=O)N[C@H]3CCOc4cc(F)ccc43)c2)nnc1-c1ccncn1 | > 30000 | – | – | – | 6.4 | – | – |
| COc1ncccc1CNC(=O)c1cccc(NCc2nnc3n2CCOc2cnccc2-3)c1 | > 30000 | – | – | – | 7.5 | – | – |
